Non-standard residues stand in square brackets, D forms with d. Residues, ends and D or L forms follow the SMILES beside them. Dip = N[C@H](C(=O)O)C(c1ccccc1)c1ccccc1
Experiments:
A375 cells [1] = assay: TEM electron microscopy, ultrastructural changes; assay type: cell-based, human
Description: A375 cells were seeded at 1×10^5 cells per well in 6-well plates and allowed to grow for three days to optimize membrane structures in the culture, and the media was changed on the second day. Cells were washed twice in serum-free RPMI before being treated with LTX-315 dissolved in serum-free RPMI at 5, 10 and 25 μg/ml, with serum-free RPMI as a negative control. Cells were then washed with PBS twice before fixation for 24 hours in 4° C. with 4% formaldehyde and 1% gluteralaldehyde in a Hepes buffer at pH 7.8. Dehydration and post-fixation protocols included incubation in a 5% buffered tannic acid and incubation in a 1% osmium-reduced ferrocyanide. Ultrathin sections were prepared, and uranyl acetate (5%) and Reynolds's lead citrate were used for staining and contrasting. Samples were examined on a JEOL JEM-1010 transmission electron microscope, and images were taken with an Olympus Morada side-mounted TEM CCD camera (Olympus soft imaging solutions, GmbH, Germany).

human A547 cells = assay: TEM, mitochondrial membrane; assay type: cell-based; details: 10 μg/ml, 60 minutes
Description: FIG. 16 LTX-315 disintegrates the mitochondria membrane. TEM images of FIG. 16a: human A547 melanoma cells treated with LTX-315 (10 μg/ml) for 60 minutes compared to FIG. 16b: control cells.

A375 cells [2] = assay: Release of cytochrome-C, ELISA of supernatant; assay type: cell-based, human; details: 35 μM; 5, 15, 45 min
Description: A375 cells were seeded as with HMGB1 studies, and treated with 35 μM for different time points (5, 15, 45). Supernatants were collected and concentrated as with HMGB1 studies, and samples from the supernatants were analyzed using a 4.5 hour solid form Cytochrome C-Elisa kit (R&D Systems, USA, #DCTC0) following the manufacturer's description. Shortly thereafter, a 50% diluted sample was analyzed and the optical density was determined using a microplate reader set at 450 nm, and […]. A standard curve was generated for each set of samples assayed. Samples were run in four parallels, and the cytochrome-c released into the supernatant was expressed as a fold over the level of cytochrome-c in the supernatant of untreated cells.

[3] = tested on: murine A20 B-cell lymphoma; assay: Adoptive spleen cell transfer, A20 B-cell lymphoma model; assay type: in vivo, mice; details: donors: LTX-315 1 mg intratumoural once daily 3 days, complete regression
Description: […] Balb/c mice (n=32) were each inoculated with A20 cells (5 million in 50 μL s.c.) on the abdominal surface. Once tumours had reached 20 mm^2 they were injected with LTX-315 (1 mg) injected intratumourally, once daily for 3 days, in a volume of 50 μL. Tumour size (mm^2) and body weight were subsequently monitored and a further injection of LTX-315 was given if any tumour re-growth was observed. Subsequently, mice showing complete tumour regression were sacrificed and used as donors for transfer of splenocytes while naive donor mice were used as controls. Spleens from donor mice were excised and cells isolated. Naive receiver mice were irradiated and divided into 2 groups. Group 1 received isolated splenocytes from cured mice, whereas group 2 received isolated splenocytes from naive mice. Freshly prepared cells were injected (20×106 per 100 μl) via the tail vein. Twenty four hours later receiver mice were inoculated with 5 million murine A20 B-cell lymphoma cells on the abdominal surface as described above. Tumour size and body weight were monitored until the maximum tumour burden of ˜125 mm^2 was reached, or a serious adverse events occurred (i.e. wound formation due to tumour tissue necrosis) at which point mice were sacrificed.

A375 cells [4] = assay: Confocal microscopy, fluorescence-labeled peptide internalization; assay type: cell-based, human; details: 1.5 and 3 μM
Description: Fixed cells, fluorescence-labeled peptide-Subconfluential A375 cells were seeded at 8,000 cells/well as above, and transfected on the second day using the Lipofectamine LTX with Plus transfection reagents (Invitrogen) following the manufacturer's protocol. The mitochondria were labeled using the pDsRed2-Mito, and the nucleus was labeled using the GFP-Histon2B plasmid (Imaging Platform, University of Tromsø). A day after transfection, cells were washed twice with serum-free RPMI, and treated at different concentration and incubation periods with LTX-315 Pacific Blue or LTX-328 Pacific Blue.
Control cells were treated with unlabeled LTX-315 and also with serum-free RPMI only. After incubation, cells were fixed with 4% paraformaldehyde in PBS, and the wells were covered with Prolong Gold antifade (Invitrogen). Cells were further analyzed by use of a Leica TCS SP5 confocal microscope, with a […] objective. Pacific Blue, GFP and Ds Red were excited using UV, with 488 and 561 lasers, and fluorescence channels were sequentially detected using the following band passes: UV: 420-480 nm (with attenuation), 488: 501-550 nm and 561: 576-676 nm.

A375 melanoma cells = assay: Live cell imaging, bright field confocal microscopy; assay type: cell-based, human; details: at an IC-50 value, majority of the cells
Description: Live cell imaging with unlabeled cells-A375 cells were seeded at 10,000 cells/well in a complete media in Nunc Lab-Tec 8-wells chambered covered glass (Sigma) precoated with 25 μg/ml human fibronectin (Sigma) that were allowed to adhere overnight. Cells were washed twice with a serum-free RPMI, treated with peptide dissolved in RPMI and investigated using Bright on a Leica TCS SP5 confocal microscope, with a 63X/1.2W objective. The microscope was equipped with an incubation chamber with CO2 and temperature control.

NCCCC[C@H](NC(=O)[C@@H](NC(=O)[C@H](Cc1c[nH]c2ccccc12)NC(=O)[C@H](CCCCN)NC(=O)[C@H](CCCCN)NC(=O)[C@H](Cc1c[nH]c2ccccc12)NC(=O)[C@H](Cc1c[nH]c2ccccc12)NC(=O)[C@H](CCCCN)NC(=O)[C@@H](N)CCCCN)C(c1ccccc1)c1ccccc1)C(N)=O [LTX-315, K-K-W-W-K-K-W-Dip-K-NH2] (H-KKWWKKW[Dip]K-NH2)
cells with vacuolization (A375 cells [1]; 3.5 μM): approximately 20% | number of necrotic cells (A375 cells [1]; 3.5 μM, 60 minutes): less than 5% | cells displaying vacuolization (A375 cells [1]; 17 μM, 60 min): 4% | cells with necrotic morphology with loss of plasma membrane integrity (A375 cells [1]; 17 μM, 60 min): approximately 40% | effect on the mitochondrial membrane (TEM) (human A547 cells): disintegration of the mitochondrial membrane | cytochrome-C in the supernatant vs untreated control cells (A375 cells [2]): three times more cytochrome-C in the supernatant compared to untreated control cells | tumour growth in irradiated recipients of splenocytes from LTX-315-cured donors vs naive donors [3]: Inhibition of tumour growth was observed | internalization of Pacific Blue-labeled peptide (A375 cells [4]): showed an accumulation around the mitochondria after 30 minutes of incubation but was not detected in the cell nucleus | time to cell collapse with extrusion of cytoplasmic content (A375 melanoma cells): 15 to 60 min
